Read-outs that look alike come from different tables or passages of the source. Values belong to the compound of their own block, whether it stands above or below them.
How the values were obtained:
Human Top1 (HTop1) = target: T1, Human Top1 (HTop1) (Homo sapiens, UniProt P11387); assay: Plasmid DNA relaxation assay, HTop1; format: biochemical; conditions: averages of three experiments, read-out: HTop1 inhibition (EC50)
T1 construct: made in house; host or cells: Sf-9 insect cells infected with recombinant baculovirus (gift from Prof. J. J. Champoux)
T1 sequence (P11387 1-765): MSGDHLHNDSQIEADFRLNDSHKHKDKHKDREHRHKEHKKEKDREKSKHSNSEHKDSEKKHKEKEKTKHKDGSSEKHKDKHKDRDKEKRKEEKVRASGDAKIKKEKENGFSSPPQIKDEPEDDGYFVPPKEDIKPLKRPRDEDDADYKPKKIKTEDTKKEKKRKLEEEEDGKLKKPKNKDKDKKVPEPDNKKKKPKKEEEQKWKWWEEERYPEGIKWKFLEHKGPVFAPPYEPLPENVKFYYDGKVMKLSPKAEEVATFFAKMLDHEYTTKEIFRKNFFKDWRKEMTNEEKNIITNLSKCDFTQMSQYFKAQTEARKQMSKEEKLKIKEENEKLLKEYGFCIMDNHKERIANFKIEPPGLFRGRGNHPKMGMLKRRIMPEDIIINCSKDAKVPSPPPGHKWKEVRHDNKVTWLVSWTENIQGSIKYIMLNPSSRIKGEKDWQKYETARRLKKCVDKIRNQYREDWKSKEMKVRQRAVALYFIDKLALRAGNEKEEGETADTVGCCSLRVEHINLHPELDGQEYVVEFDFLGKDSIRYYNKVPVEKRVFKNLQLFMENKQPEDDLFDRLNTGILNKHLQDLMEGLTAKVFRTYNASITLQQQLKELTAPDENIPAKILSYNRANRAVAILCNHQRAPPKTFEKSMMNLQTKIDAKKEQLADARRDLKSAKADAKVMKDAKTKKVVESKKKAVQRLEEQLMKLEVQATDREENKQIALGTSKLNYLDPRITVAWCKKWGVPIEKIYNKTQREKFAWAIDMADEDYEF
Description: (§1) To investigate the inhibitory effect of our library compounds on the DNA relaxation activity of the recombinant Human and Leishmania topoisomerase 1 (Table 2), assays were performed involving supercoiled plasmid DNA, the enzymes (HTop1 and LdTop1) and our molecules. The enzymes were purified by the standard literature procedure.
(§2) The type I DNA topoisomerase are assayed by decreased mobility of the relaxed isomers of supercoiled pBS (SK^+) [pBlue-script (SK^+)] DNA in agarose gel. The relaxation assay was carried out as described previously with LdTop1B and HTop I, diluted in the relaxation buffer (25 mM Tris–HCl, pH 7.5, 5% glycerol, 0.5 mM DTT, 10 mM MgCl2, 50 mM KCl, […] and […] BSA) and supercoiled plasmid pBS (SK^+) DNA (85–95% were negatively supercoiled, with remainder being nicked circles)[9][28][29]. The reconstituted enzyme LdTop1B was assayed at 50 mM KCl concentration as described before. For all kinetic studies, the reaction mixtures containing the buffer and DNA were heated to 37 °C before addition of the enzymes. The reactions were rapidly quenched using stop solution and kept on ice. The gels were stained with ethidium bromide (EtBr) ([…]) and the amount of supercoiled monomer DNA band fluorescence were quantified by integration using Gel Doc 2000 under UV illumination (Bio-Rad Quantity One Software), as described previously.
The wild-type HTop1 (91 kDa) was purified from Sf-9 insect cells infected with the recombinant baculovirus (a kind gift from Prof. J. J. Champoux). Approximately, 1 * 10^9 Sf-9 cells were infected with the recombinant virus, and cells were harvested after 48-h of infection. The cells were lysed and enzyme was purified as described. Briefly, at 48 h post-infection, approximately 3 * 10^9 Sf-9 cells were harvested by centrifugation for 5 min at 400 * g. The cells were resuspended in 1 liter of ice-cold phosphate-buffered saline and centrifuged for 5 min at 400 * g. The nuclei were washed twice in 80 ml of lysis buffer minus Triton X-100 and resuspended in 40 ml of resuspension buffer (50 mM KCl, 10 mM Tris-Cl, pH 7.5, 2 mM MgCl2, 25 mM DTT, 0.4 mg/ml phenylmethylsulfonyl fluoride, 0.12 mg/ml aprotinin). The nuclear extract was stirred for 5 min at ~200 rpm. With continued stirring, 50 ml of polyethylene glycol (PEG) buffer (18% PEG 8000, 1 M NaCl, 10% glycerol) was added dropwise in order to precipitate the DNA. The PEG precipitate was pelleted by centrifugation and the resulting PEG supernatant was dialyzed against 4 liters of potassium phosphate buffer. The dialyzed PEG supernatant passed over a 10-ml bed volume of phosphocellulose (Whatman P11) equilibrated with PPB. The HTop1 flowed through the PS column and then passed over a Mono Q column followed by loaded onto a Mono S column. The Mono S column was eluted with a 25-ml 50–200 mM KPO4, pH 7.4, gradient. […] The peak Mono S fractions were pooled, concentrated with an Amicon ultrafiltration cell, dialyzed into storage buffer (50% glycerol, 10 mM Tris-hydrochloride, pH 7.5, 1 mM DTT, 1 mM EDTA), and stored at −20 °C.

[1] = target: Leishmania donovani Topoisomerase 1 (LdTop1) (Leishmania donovani, UniProt A0A3Q8IHS4+Q8WQM6); assay: Plasmid DNA relaxation assay, LdTop1 (simultaneous incubation); format: biochemical
Sequence of Leishmania donovani Topoisomerase 1 (LdTop1) (Q8WQM6 entry or part of it): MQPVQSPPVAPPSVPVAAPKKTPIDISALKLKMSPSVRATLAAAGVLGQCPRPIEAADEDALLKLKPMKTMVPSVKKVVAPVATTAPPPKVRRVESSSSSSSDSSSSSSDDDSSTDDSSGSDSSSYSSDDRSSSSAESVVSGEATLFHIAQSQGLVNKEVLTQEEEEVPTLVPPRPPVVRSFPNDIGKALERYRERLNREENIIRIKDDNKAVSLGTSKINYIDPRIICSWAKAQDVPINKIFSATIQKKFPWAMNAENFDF
Sequence of Leishmania donovani Topoisomerase 1 (LdTop1) (A0A3Q8IHS4 entry or part of it): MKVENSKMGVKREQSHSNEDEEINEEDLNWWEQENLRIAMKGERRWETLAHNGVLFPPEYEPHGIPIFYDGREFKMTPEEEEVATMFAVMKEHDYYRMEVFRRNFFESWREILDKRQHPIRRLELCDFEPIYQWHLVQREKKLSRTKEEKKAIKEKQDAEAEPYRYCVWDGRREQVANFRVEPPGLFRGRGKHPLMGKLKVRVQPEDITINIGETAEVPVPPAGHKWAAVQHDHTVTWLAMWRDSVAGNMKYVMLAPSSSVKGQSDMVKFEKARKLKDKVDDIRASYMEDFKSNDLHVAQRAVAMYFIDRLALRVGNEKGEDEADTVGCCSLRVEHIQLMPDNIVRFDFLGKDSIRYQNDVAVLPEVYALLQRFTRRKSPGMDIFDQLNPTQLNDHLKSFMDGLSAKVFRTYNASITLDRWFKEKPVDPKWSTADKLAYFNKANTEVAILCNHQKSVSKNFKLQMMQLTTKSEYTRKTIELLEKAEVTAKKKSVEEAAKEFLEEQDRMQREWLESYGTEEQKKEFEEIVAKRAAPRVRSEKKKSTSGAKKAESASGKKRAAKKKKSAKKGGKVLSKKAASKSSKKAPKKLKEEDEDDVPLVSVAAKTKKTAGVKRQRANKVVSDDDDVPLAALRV
Description: as §1
All the experiments were conducted thrice and representative data from once set of them are expressed as mean ± SD.
as §2
Cells harvested from 1 litre of culture were separately lysed by lysozyme/sonication, and the proteins were purified through Ni-NTA (Ni^2+-nitriloacetate-agarose column (Qiagen, Hilden, Germany) followed by a phospho-cellulose column (P11 cellulose; Whatman, Maidstone Kent, UK) as described previously. Finally, the purified proteins LdTOP1L and LdTOP1S were stored at −70 °C. The concentrations of each protein were quantified by using Bradford Reagent (PIERCE, Thermo Fisher Scientific Inc., Rockford, USA). Purified LdTOP1L was mixed with purified LdTOP1S at a molar ratio of 1:1 to a total protein concentration of 0.5 mg/ml in reconstitution buffer [50 mM potassium phosphate, pH 7.5, 0.5 mM DTT, 1 mM EDTA, 0.1 mM PMSF and 10% (v/v) glycerol]. The mixture was dialyzed overnight at 4 °C and dialyzed fractions were used for plasmid relaxation activity.

[2] = tested on: L. donovani AG83 promastigotes; assay: MTT assay on extracellular promastigotes; format: cell-based; conditions: Leishmania donovani, 12 h, read-out: Anti-promastigote activity IC50
Description: Next, compound 4 was screened against extracellular promastigotes.
L. donovani AG83 promastigotes (3.0 × 10^6 cells/ml) are incubated with different concentrations of drugs/compounds under study (1, 2, 5, 10 and 20 μM) for 12 h, following which the survival percentage is estimated by MTT assay. Yellow MTT (3-(4,5-dimethylthiazol- 2-yl)-2,5-diphenyltetrazolium bromide, a tetrazole) is reduced to purple formazan in the mitochondria of living cells. The formazan is then solubilized, and the concentration is determined by optical density at 570 nm. Metabolically active cells convert MTT to formazan, thereby generating a quantitative measure of viability and cytotoxicity. Percentage of viable promastigotes in each treatment groups are determined with respect to untreated control cells.

[3] = plasmid DNA relaxation, averages of three experiments, read-out: LDTop1 inhibition (EC50)

SMILES: Cc1cc2c(c(=O)[nH]1)C(=O)O/C2=C\c1cccc(I)c1 [Compound 15]
- EC50 (Human Top1 (HTop1)): > 100 µM
- inhibition at 12.5 µM ([1]; LdTop1 relaxation, 12.5 uM, read-out: % inhibition, mean data): 42.1%
- inhibition at 25 µM ([1]; LdTop1 relaxation, 25 uM, read-out: % inhibition, mean data): 55.3%
- % inhibition (CPT 100%), data 2 ([1]; LdTop1 relaxation, 50 uM): 74.2517%
- inhibition at 50 µM ([1]; LdTop1 relaxation, 50 uM, read-out: % inhibition, mean data): 75.2%
- inhibition at 100 µM ([1]; LdTop1 relaxation, 100 uM, read-out: % inhibition, mean data): 91.7%
- LdTop1 inhibitory activity ([1]; plasmid DNA relaxation): considerable activity
- EC50 [1, 3]: 17.4 ± 1.86 µM
- inhibition at 12.5 µM ([1]; read-out: % inhibition (CPT 100%), data 1, LdTop1 relaxation, 12.5 uM): 41.1%
- inhibition at 25 µM ([1]; read-out: % inhibition (CPT 100%), data 1, LdTop1 relaxation, 25 uM): 53.2%
- inhibition at 50 µM ([1]; read-out: % inhibition (CPT 100%), data 1, LdTop1 relaxation, 50 uM): 76.2%
- inhibition at 100 µM ([1]; read-out: % inhibition (CPT 100%), data 1, LdTop1 relaxation, 100 uM): 93%
- inhibition at 12.5 µM ([1]; read-out: % inhibition (CPT 100%), data 2, LdTop1 relaxation, 12.5 uM): 43.1%
- inhibition at 25 µM ([1]; read-out: % inhibition (CPT 100%), data 2, LdTop1 relaxation, 25 uM): 57.3%
- inhibition at 50 µM ([1]; read-out: % inhibition (CPT 100%), data 2, LdTop1 relaxation, 50 uM): 74.3%
- inhibition at 100 µM ([1]; read-out: % inhibition (CPT 100%), data 2, LdTop1 relaxation, 100 uM): 90.5%
- EC50 ([1]; supplement sheet Ld Top 1 data, concentrations in uM, read-out: EC50 (LdTop1, supplement sheet)): 17.4 µM

SMILES: Cc1cc2c(c(=O)[nH]1)C(=O)O/C2=C\c1ccccc1Br [Compound 20]
- EC50 (Human Top1 (HTop1)): > 100 µM
- EC50 [1, 3]: > 100 µM

SMILES: Cc1cc2c(c(=O)[nH]1)C(=O)O/C2=C\c1ccccc1Cl [Compound 21]
- EC50 (Human Top1 (HTop1)): > 100 µM
- EC50 [1, 3]: > 100 µM

SMILES: CCCCCCCCCCCCCCCCOP(=O)([O-])OCC[N+](C)(C)C [miltefosine, reference compound]
- IC50 [2]: ~1000 nM

The remaining lines, values ahead:

- EC50 (Human Top1 (HTop1)): > 100 µM
- LdTop1 inhibitory activity ([1]; plasmid DNA relaxation): no inhibitory activity at all
- EC50 [1, 3]: > 100 µM
SMILES: CC/C=C1\OC(=O)c2c1cc(C)[nH]c2=O [Compound 16]

- EC50 (Human Top1 (HTop1)): > 100 µM
- EC50 [1, 3]: > 100 µM
SMILES: Cc1cc2c(c(=O)[nH]1)C(=O)O/C2=C\c1ccc(Cl)cc1 [Compound 17]

- EC50 (Human Top1 (HTop1)): > 100 µM
- EC50 [1, 3]: > 100 µM
SMILES: Cc1cc2c(c(=O)[nH]1)C(=O)O/C2=C\c1ccc(I)cc1 [Compound 18]

- EC50 (Human Top1 (HTop1)): > 100 µM
- EC50 [1, 3]: > 100 µM
SMILES: COc1ccc(/C=C2\OC(=O)c3c2cc(C)[nH]c3=O)cc1 [Compound 19]

Source: paper PMC4879574, “Identification of Leishmania donovani Topoisomerase 1 inhibitors via intuitive scaffold hopping and bioisosteric modification of known Top 1 inhibitors” (Scientific Reports, 2016)
